Measured values as given in PMC5011342, “A high throughput drug screening assay to identify compounds that promote oligodendrocyte differentiation using acutely dissociated and purified oligodendrocyte precursor cells” (BMC Research Notes, 2016).
Like-named read-outs stand apart in the source and are kept apart here.

Tests used:
expanded OPCs = assay: cells; conditions: for viability at 0.1 µM / viability at 1 µM / viability at 10 µM: Rattus norvegicus, 72 h
Procedure, shortened: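 Expanded OPCs seeded at 10,000 cells/well in differentiation media, then exposed to NCC library compounds at 10, 1 and 0.1 µM (quadruplicate, 0.1% DMSO) for three days. Viability read as alamarBlue fluorescence (560/590 nm) after 4 h at 37 °C; tunicamycin 5 ng/ml served as toxicity control.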

[1] = tested on: acutely dissociated and purified rat OPCs; assay: Acute OL differentiation assay (MBP expression/cell, immunofluorescent image quantification); assay type: cell-based; conditions: for activation at 0.4 µM / activation at 2 µM / activation at 10 µM: Rattus norvegicus; for activation at 0.4 µM: 0.4 uM test compound, read-out: OL differentiation, 0.4 uM (% Quet)
Procedure, shortened: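 Oligodendrocyte precursor cells were enriched from P6-P7 Sprague–Dawley rat brains by immunopanning (RAN-2 and GalC depletion, O4 selection), plated at 5000 cells/well in serum-free, mitogen-free differentiation media on PDL/laminin 96-well view plates, centrifuged at 200×g, and pre-incubated 1–2 h before test compounds were added in quadruplicate. On DIV4, cells were fixed, stained for MBP and DAPI, imaged automatically, and MBP expression per cell was quantified.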

[2] = read-out: 0.1 µM (% DMSO), alamarBlue viability of expanded OPCs, compound at 0.1 µM, sheet All Tox data
[3] = read-out: 1 µM (% DMSO), alamarBlue viability of expanded OPCs, compound at 1 µM, sheet All Tox data
[4] = read-out: 10 µM (% DMSO), alamarBlue viability of expanded OPCs, compound at 10 µM, sheet All Tox data
[5] = relative to quetiapine, sheet "All OLga data"
[6] = 2 uM test compound, relative to quetiapine, sheet "All OLga data", read-out: OL differentiation, 2 uM (% Quet)
[7] = read-out: 0.1 µM (% DMSO), alamarBlue viability, NCC library compound at 0.1 µM, sheet "All Tox data"
[8] = read-out: 1 µM (% DMSO), alamarBlue viability, NCC library compound at 1 µM, sheet "All Tox data"
[9] = read-out: 10 µM (% DMSO), alamarBlue viability, NCC library compound at 10 µM, sheet "All Tox data"
[10] = test compound at 2 uM, NCC library screen, sheet "All OLga data", relative to quetiapine, read-out: 2 uM (% Quet)
[11] = test compound at 10 uM, NCC library screen, sheet "All OLga data", relative to quetiapine, read-out: 10 uM (% Quet)
[12] = alamarBlue viability of expanded OPCs, compound at 0.1 µM, relative to DMSO control
[13] = alamarBlue viability of expanded OPCs, compound at 1 µM, relative to DMSO control
[14] = alamarBlue viability of expanded OPCs, compound at 10 µM, relative to DMSO control
[15] = test compound at 2 uM, MBP expression relative to quetiapine, NCC library screen, sheet "All OLga data", read-out: 2 uM (% Quet)
[16] = test compound at 10 uM, MBP expression relative to quetiapine, NCC library screen, sheet "All OLga data", read-out: 10 uM (% Quet)
[17] = 10 uM test compound, relative to quetiapine, sheet "All OLga data", read-out: OL differentiation, 10 uM (% Quet)

Row | Structure (SMILES) | activation at 2 µM [1, 6] | viability at 0.1 µM (expanded OPCs; [7]) | viability at 1 µM (expanded OPCs; [8]) | viability at 10 µM (expanded OPCs; [9]) | activation at 2 µM [1, 10] | activation at 10 µM [1, 11] | 0.1 µM (% DMSO) (expanded OPCs; [12]) | 1 µM (% DMSO) (expanded OPCs; [13]) | 10 µM (% DMSO) (expanded OPCs; [14]) | also measured
1 | CN1CCN(c2nc3cc(C(F)(F)F)ccc3n3cccc23)CC1.O=C(O)/C=C\C(=O)O.O=C(O)/C=C\C(=O)O [CGS-12066B] |  |  |  |  |  |  |  |  |  | 0.1 µM (% DMSO) (expanded OPCs; alamarBlue viability, NCC library compound at 0.1 µM, sheet "All Tox data"): 78.7 % DMSO; 1 µM (% DMSO) (expanded OPCs; alamarBlue viability, NCC library compound at 1 µM, sheet "All Tox data"): 44.5 % DMSO; 10 µM (% DMSO) (expanded OPCs; alamarBlue viability, NCC library compound at 10 µM, sheet "All Tox data"): 16.9 % DMSO; 0.08 uM (% Quet) ([1]; test compound at 0.08 uM, NCC library screen, sheet "All OLga data", relative to quetiapine): 28.1 % Quet; 0.4 uM (% Quet) ([1]; test compound at 0.4 uM, NCC library screen, sheet "All OLga data", relative to quetiapine): -50.5 % Quet
2 | C=C1/C(=C\C=C2/CCC[C@]3(C)[C@@H]([C@H](C)/C=C/[C@@H](O)C4CC4)CC[C@@H]23)C[C@@H](O)C[C@@H]1O [Calcipotriene] | -7.8% |  |  |  |  |  |  |  |  | viability at 0.1 µM (expanded OPCs; [2]): 98.3%; viability at 1 µM (expanded OPCs; [3]): 89%; viability at 10 µM (expanded OPCs; [4]): 11.5%; activation at 0.4 µM [1, 5]: 14.8%
3 | C=C1/C(=C\C=C2/CCC[C@]3(C)[C@@H]([C@H](C)CCCC(C)(C)O)CC[C@@H]23)C[C@@H](O)C[C@@H]1O [Calcitriol] | 30.3% | 99.4% | 108% | 11% |  |  |  |  |  | activation at 0.4 µM [1, 5]: 8.9%
4 | C[C@H](CS)C(=O)N1CCC[C@H]1C(=O)O [Captopril] |  | 90.7% | 93.2% | 99.1% | 8% | 8.4% |  |  |  | 
5 | NC(=O)N1c2ccccc2C=Cc2ccccc21 [Carbamazepine] |  |  |  |  |  |  | 107.0 % DMSO | 99.7 % DMSO | 103.7 % DMSO | activation at 2 µM [1, 15]: -5.2%; activation at 10 µM [1, 16]: -13.7%
6 | C[C@@](Cc1ccc(O)c(O)c1)(NN)C(=O)O [Carbidopa] |  |  |  |  |  |  | 108.9 % DMSO | 101.2 % DMSO | 82.3 % DMSO | activation at 2 µM [1, 15]: -35.6%; activation at 10 µM [1, 16]: -121%
7 | CN(C)CCOC(c1ccc(Cl)cc1)c1ccccn1 (centres unmarked) [Carbinoxamine] |  | 92.8% | 73.8% | 57.6% | 7.4% | -28.8% |  |  |  | 
8 | CCCC(C)(COC(N)=O)COC(=O)NC(C)C (centres unmarked) [Carisoprodol] |  |  |  |  |  |  | 92.1 % DMSO | 90.4 % DMSO | 89.3 % DMSO | activation at 2 µM [1, 15]: -33%; activation at 10 µM [1, 16]: -33%
9 | CCCCCCNC(=O)n1cc(F)c(=O)[nH]c1=O [Carmofur] | -84.8% |  |  |  |  |  |  |  |  | viability at 0.1 µM (expanded OPCs; [2]): 90.5%; viability at 1 µM (expanded OPCs; [3]): 76.1%; viability at 10 µM (expanded OPCs; [4]): 14.6%; activation at 0.4 µM [1, 5]: -28.7%
10 | COc1ccccc1OCCNCC(O)COc1cccc2[nH]c3ccccc3c12 (centres unmarked) [Carvedilol] | -95.9% |  |  |  |  |  |  |  |  | viability at 0.1 µM (expanded OPCs; [2]): 101%; viability at 1 µM (expanded OPCs; [3]): 54.5%; viability at 10 µM (expanded OPCs; [4]): 12%; activation at 0.4 µM [1, 5]: -16.1%
11 | N[C@@H](C(=O)N[C@@H]1C(=O)N2C(C(=O)O)=C(Cl)CS[C@H]12)c1ccccc1 [Cefaclor] |  | 90.3% | 94.6% | 106% | -10.8% | 27.4% |  |  |  | 
12 | N[C@@H](C(=O)N[C@@H]1C(=O)N2C(C(=O)O)=C(CSc3c[nH]nn3)CS[C@H]12)c1ccc(O)cc1 [Cefatrizine] | 11.1% |  |  |  |  |  |  |  |  | viability at 0.1 µM (expanded OPCs; [2]): 99.1%; viability at 1 µM (expanded OPCs; [3]): 95.1%; viability at 10 µM (expanded OPCs; [4]): 104%; activation at 10 µM [1, 17]: -10.4%
13 | Cc1nnc(SCC2=C(C(=O)O)N3C(=O)[C@@H](NC(=O)Cn4cnnn4)[C@H]3SC2)s1 [Cefazolin] |  | 95.1% | 92.5% | 96.9% | 6.4% | 0.95% |  |  |  | 
14 | C=CC1=C(C(=O)O)N2C(=O)[C@@H](NC(=O)/C(=N\O)c3csc(N)n3)[C@H]2SC1 [Cefdinir] |  | 86.5% | 90.2% | 84.8% | 13.5% | 23% |  |  |  | 
15 | C=CC1=C(C(=O)O)N2C(=O)[C@@H](NC(=O)/C(=N\OCC(=O)O)c3csc(N)n3)[C@H]2SC1 [Cefixime] |  | 82.1% | 68.5% | 67.3% | 6.6% | 63.5% |  |  |  | 
16 | CO/N=C(\C(=O)N[C@@H]1C(=O)N2C(C(=O)O)=C(COC(C)=O)CS[C@H]12)c1csc(N)n1 [Cefotaxime] |  |  |  |  |  |  | 97.0 % DMSO | 88.3 % DMSO | 82.3 % DMSO | activation at 2 µM [1, 15]: 9.9%; activation at 10 µM [1, 16]: 8.5%
17 | CO[C@@]1(NC(=O)Cc2cccs2)C(=O)N2C(C(=O)O)=C(COC(N)=O)CS[C@@H]21 [Cefoxitin] |  |  |  |  | 4.1% | 0.14% | 88.0 % DMSO | 88.0 % DMSO | 85.5 % DMSO | 
18 | COCC1=C(C(=O)OC(C)OC(=O)OC(C)C)N2C(=O)[C@@H](NC(=O)/C(=N\OC)c3csc(N)n3)[C@H]2SC1 (some centres unmarked) [Cefpodoxime proxetil] | -7.7% |  |  |  |  |  |  |  |  | viability at 0.1 µM (expanded OPCs; [2]): 96.9%; viability at 1 µM (expanded OPCs; [3]): 90.7%; viability at 10 µM (expanded OPCs; [4]): 98%; activation at 10 µM [1, 17]: -20.6%
19 | CO/N=C(\C(=O)N[C@@H]1C(=O)N2C(C(=O)O)=C(COC(N)=O)CS[C@H]12)c1ccco1 [Cefuroxime] |  |  |  |  |  |  | 91.1 % DMSO | 94.9 % DMSO | 91.5 % DMSO | activation at 2 µM [1, 15]: 13.5%; activation at 10 µM [1, 16]: 13.9%
20 | Cc1ccc(-c2cc(C(F)(F)F)nn2-c2ccc(S(N)(=O)=O)cc2)cc1 [Celecoxib] |  |  |  |  |  |  | 94.3 % DMSO | 89.6 % DMSO | 87.2 % DMSO | activation at 2 µM [1, 15]: 14.8%; activation at 10 µM [1, 16]: 9%
21 | CC1=C(C(=O)O)N2C(=O)[C@@H](NC(=O)[C@H](N)c3ccccc3)[C@H]2SC1 [Cephalexin] | -1.3% |  |  |  |  |  |  |  |  | viability at 0.1 µM (expanded OPCs; [2]): 103%; viability at 1 µM (expanded OPCs; [3]): 110%; viability at 10 µM (expanded OPCs; [4]): 112%; activation at 10 µM [1, 17]: -4.5%
22 | COCc1c(C(C)C)nc(C(C)C)c(/C=C/[C@@H](O)C[C@@H](O)CC(=O)O)c1-c1ccc(F)cc1 [Cerivastatin] | -191% |  |  |  |  |  |  |  |  | viability at 0.1 µM (expanded OPCs; [2]): 97.3%; viability at 1 µM (expanded OPCs; [3]): 52.3%; viability at 10 µM (expanded OPCs; [4]): 11.5%; activation at 0.4 µM [1, 5]: -38.8%
23 | O=C(O)COCCN1CCN(C(c2ccccc2)c2ccc(Cl)cc2)CC1 (centres unmarked) [Cetirizine] |  | 92.3% | 89.3% | 87.4% | 9.7% | 9.5% |  |  |  | 
24 | NC[C@H]1CC[C@H](C(=O)Oc2ccc(CCC(=O)O)cc2)CC1 [Cetraxate] | -6.2% |  |  |  |  |  |  |  |  | viability at 0.1 µM (expanded OPCs; [2]): 103%; viability at 1 µM (expanded OPCs; [3]): 92.1%; viability at 10 µM (expanded OPCs; [4]): 104%; activation at 10 µM [1, 17]: -5.4%
25 | C[C@H](CCC(=O)O)[C@H]1CC[C@H]2[C@@H]3[C@H](O)C[C@@H]4C[C@H](O)CC[C@]4(C)[C@H]3CC[C@]12C [Chenodeoxycholic Acid] |  |  |  |  | -24.3% | -7.9% | 111.3 % DMSO | 107.5 % DMSO | 110.8 % DMSO | 
26 | O=C(O)CCCc1ccc(N(CCCl)CCCl)cc1 [Chlorambucil] |  |  |  |  |  |  |  |  |  | viability at 0.1 µM (expanded OPCs; read-out: 0.1 µM (% DMSO)): 88%; viability at 1 µM (expanded OPCs; read-out: 1 µM (% DMSO)): 80.8%; viability at 10 µM (expanded OPCs; read-out: 10 µM (% DMSO)): 57.4%; activation at 2 µM ([1]; read-out: 2 uM (% Quet)): -18.6%; activation at 10 µM ([1]; read-out: 10 uM (% Quet)): -105%
27 | O=C(N[C@H](CO)[C@H](O)c1ccc([N+](=O)[O-])cc1)C(Cl)Cl [Chloramphenicol] |  |  |  |  |  |  | 87.1 % DMSO | 93.2 % DMSO | 90.9 % DMSO | activation at 2 µM [1, 15]: 9.3%; activation at 10 µM [1, 16]: 1.1%
28 | CNC1=Nc2ccc(Cl)cc2C(c2ccccc2)=[N+]([O-])C1 [Chlordiazepoxide] |  | 91.2% | 93.8% | 90.6% | -0.9% | 23.8% |  |  |  | 
